Entries after “also recorded” stand apart in the source; their conditions may differ.
Columns and labels:
platelets = conditions: literature, cited from earlier work
59M cells [1] = assay: Tumour cell-induced platelet aggregation (TCIPA), static conditions, 59M; type: cell-based, human; conditions: static, WP, 300 and 500 μM, 59M 1×10^3/ml; listed as ISAS
Source text: ISAS meanwhile is hydrolysed to aspirin and salicylic acid. […] The structure of platelet-tumor cell aggregates was studied using phase-contrast microscopy (Alonso-Escolano et al., 2004; Jurasz et al., 2001). […] Aliquots of each sample were then taken for phase-contrast microscopy examination using an Olympus CKX41 microscope (Olympus America Inc., […].). Photomicrographs were captured using a digital camera and MicroFire (Olympus America Inc.) software (Alonso-Escolano et al., 2004; Jurasz et al., 2001).

GPIIb/IIIa = assay: Flow cytometry of activated GPIIb/IIIa on platelets after collagen stimulation; type: cell-based, human; conditions: 60 μM
Procedure: (§1) In order to analyze receptor expression on the surface of individual platelets and to minimize platelet activation caused by sample preparation procedures, no stirring or vortexing steps were used. The abundance of activated GPIIb/IIIa and P-selectin on the surface of platelets in the presence and absence of inhibitors was measured by flow cytometry. Platelet samples were first activated with agonists either collagen or ADP. When platelet aggregation reached 50% maximal light transmission the reaction was terminated by 10-fold dilution with physiologic saline. Resting platelets were used as control. […] The activated GPIIb/IIIa platelet receptors were measured using PAC-1 monoclonal antibody at the same concentration as above. […] Following incubation, samples were diluted in FACS Flow fluid and analyzed within 5 min using a BD FACSArray (BD Biosciences, Oxford, UK). […] The instrument was set up to measure the size (forward scatter), granularity (side scatter) and cell fluorescence. […] Antibody binding was measured by analyzing individual platelets for fluorescence. The mean fluorescence intensity was determined after correction for cell autofluorescence. For each sample, the fluorescence was analyzed using a logarithmic scale. Fluorescence histograms were obtained for 10,000 individual events. […]

[2] = system: platelet rich plasma (PRP); assay: Collagen-induced platelet aggregation in platelet rich plasma (light aggregometry); type: cell-based, human; conditions: 200 μM in PRP, collagen 5 μg/ml
Procedure: (§2) PRP and WP (2.5×10^8 platelets ml^−1) were prepared from blood. Briefly 36 ml whole blood was collected into 4 ml of 3.15% sodium citrate; this was centrifuged at 250 ¥g for 20 min (with gentle acceleration and deceleration). At this point PRP, which had separated from white blood cells and red blood cells, was gently removed. When WP were required this PRP was centrifuged at 700 g for 10 min (with gentle acceleration and deceleration) in the presence of prostacyclin. The platelet-poor plasma (PPP) was removed and the platelet pellet was washed three times with Tyrode's buffer, before being re-suspended in Tyrode's buffer to a concentration of 2.5 ¥108 platelets/ml.
(§3) Platelet aggregation was measured by light aggregometry. […] Aggregation was initiated by the addition of agonists, and monitored by Aggro-Link software for at least 6 min.
(§4) To study the aggregatory potency of ADP, the concentration-response (0.3-10 μM) curves were generated. Collagen at different concentrations (2-5 μg/ml) was also used to induce platelet aggregation. Submaximal concentrations of agonists, i.e. the concentrations that gave approximately 95% of the maximal aggregation were used to study the effects of inhibitors of aggregation. Aspirin and aspirin prodrugs was incubated for various intervals prior to the addition of aggregating agents.
(§5) Eserine (in DMSO, 10 μM, giving a final concentration≦0.25% DMSO, which pilot studies had determined not to affect platelet aggregation) was preincubated with PRP or WP for 5 min in the aggregometer with stirring at 900 r.p.m. before the addition of test compounds (ST0701-05), which were incubated in PRP or WP for a further 10 min prior to the addition of an agonist (10 μM ADP or 5 μg/ml Collagen) to induce platelet aggregation.

P-selectin [3] = assay: Flow cytometry of P-selectin on platelets after collagen stimulation; type: cell-based, human; conditions: 60 μM
Procedure: as §1

[4] = system: platelet rich plasma (PRP); assay: ADP-induced platelet aggregation in PRP; type: cell-based, human
Procedure: as §2, §3, §4, §5
1H-[1,2,4]Oxadiazolo[4,3-a]quinoxalin-1-one (ODQ, dissolved in 100% DMSO, used at a final concentration of 10 μM, which gave a final concentration not more than 0.25% DMSO) was preincubated with PRP or WP for 5 min in the aggregometer with stirring at 900 r.p.m. before the addition of test compounds (ST0701-05), which were incubated in PRP or WP for a further 10 min prior to the addition of an agonist (10 μM ADP or 5 μg/ml collagen) to induce platelet aggregation.
Eserine (10 μM) was incubated with PRP for 5 min in the aggregometer with stirring at 900 r.p.m. before the addition of test compound ST0702 salicylate (500 μM), which was incubated in PRP for a further 10 min prior to the addition of the agonist ADP (10 μM) to induce platelet aggregation.

P-selectin [5] = assay: Flow cytometry of platelet P-selectin during TCIPA induced by 59M cells; type: cell-based, human; conditions: 300 μM
washed platelets (WP) = assay: Collagen-induced platelet aggregation in washed platelets (light aggregometry); type: cell-based, human; design: IC50: unit of the concentration uncertain
Procedure: as §2, §3, §4
To study the involvement of plasma BuChE in the activation of ST0701, purified BuChE (3 U/ml) was incubated with WP for 5 min in the aggregometer with stirring at 900 r.p.m. before the addition of the test compounds ST0701 which was incubated with the WP for a further 10 min, prior to the addition of collagen (5 ug/ml).
as §5
Phenylmethylsulphonylfluoride (PMSF) 20, 50 and 100 μM dissolved in EtOH (<0.2% EtOH, which pilot studies had determined not to affect platelet aggregation) was preincubated in WP in the aggregometer for 5 min with stirring at 900 r.p.m. before the addition of test compound ST0702 to the WP, which was further incubated for 10 min prior to the addition of collagen (2 μg/ml) to induce platelet aggregation.

59M cells [6] = assay: Flow-mediated TCIPA using an ultrasound standing wave trap; type: cell-based, human; conditions: 500 μM, 59M cell cluster
Source text: The ultrasound trap had three essential features: a transducer (Ferroperm, Kvistgard, Denmark) in a housing of radial symmetry, an aqueous phase and a reflector that provided optical access from above. The trap was driven with a function generator (Hewlett Packard 33120A, UK). Microscopic observation occurred with a fast, high-resolution XM10 camera (Soft Imaging System, SIS, GmbH) mounted on an Olympus BX51M reflection epi-fluorescence microscope. Images were captured by a standard PC equipped with the Cell-D image acquisition software (Soft Imaging System, SIS, GmbH).
The experimental procedure was as follows: 59M cells were introduced into the trap, the acoustic field (2.13 MHz, 0.85 MPa) was initiated and cell clusters were allowed to form. Clusters remained levitated in suspension for 10 min. Washed platelets (2.5×10^8/ml) were introduced into the trap at a flow rate of 3 μl/min. Perfusion of washed platelets around the cluster proceeded following initial adhesion of platelets to the periphery of the cluster.
To study the effect of aspirin and aspirin prodrugs in TCIPA, washed platelets were pre-incubated for 10 min at room temperature with the inhibitors: aspirin, nicotinate, ISAS, ISMNA, ortho and meta (all at a concentration of 500 μM), prior to their introduction into the ultrasound trap. […] The cell cluster-platelet aggregate remained under microscopic observation for further 10 min (the upper time limit established in the current study) under continuous flow conditions. Further experiments were performed with ST0702 salicylate (500 μM).

washed platelet samples = assay: Collagen-induced platelet aggregation in the TCIPA studies (washed platelets); type: cell-based, human; conditions: collagen 2 μg/ml (FIG. 16B)
[7] = In-vitro half life of the ST0702 metabolite; type: in vitro ADME
HT1080 cells = assay: Tumour cell-induced platelet aggregation (TCIPA), static conditions, HT1080; type: cell-based, human; conditions: 500 μM
Procedure: Three human tumor cell lines, 59M ovarian adenocarcinoma, Caco-2 colon adenocarcinoma and HT1080 fibrocarcinoma cells, were obtained from the European Cell Culture Collection. Cell lines were cultured as monolayers in 75 ml culture flasks at 37° C. in a humidified atmosphere with 5% CO2. 59M cells and HT1080 were cultured in Dulbecco's […] (DMEM) supplemented with 10% fetal bovine serum (FBS) and gentamycin (0.05 mg/ml), penicillin (0.06 mg/ml), and streptomycin (0.01 mg/ml). Caco-2 cell line was cultured in Minimum Essential Medium (MEM) supplemented with 20% FBS and the same antibiotics as above. The cells were supplied with fresh medium and subcultured three times each week.
Washed platelet suspensions (2.5×10^11 platelets 1^−1) were prepared from blood an mixed with the anticoagulant sodium citrate (0.315% final concentration).
The interactions between platelets and tumor cells were measured by light aggregometry (Alonso-Escolano et al., 2004; Jurasz et al., 2001b; Radomski et al., 1991). Briefly, washed platelet samples (2.5×10^8/ml) were placed in an eight channel PAP 8 aggregometer (BIO/DATA CORPORATION, Horsham, Pa., U.S.A.) and incubated for 10 min at 37° C., with stirring at 900 r.p.m., prior to the addition of aggregating agents. […] TCIPA was initiated by the addition of cancer cells, and monitored by Aggro-Link software for at least 30 min. For experiments using inhibitors, aggregation was initiated after 10 min preincubation with these compounds.
To study the ability of the aspirin pro-drugs to inhibit TCIPA in WP cancer cell lines such as HT1080 cells (2×10^5/ml), CaCo2 cells (1.5×10^3/ml) or 59M cells (1×10^3/ml) were used in the presence or absence of aspirin nicotinate (ST0702), ISAS, orthonitrate and metanitrate at 300 and 500 μM. Platelet aggregation was initiated in washed platelets (WP) using HT1080 cells (2×10^5/ml), CaCo2 cells (1.5×10^3/ml) or 59M cells (1×10^3/ml). In addition, regular aspirin (300 and 500 uM) was used as control. Results were expressed in percent changes in maximal light transmission, with 100% representing light transmission of platelet medium alone. ST0702 is hydrolyzed by plasma esterases along two pathways liberating both aspirin and 5-nicotinate salicylate (ST0702 salicylate)(metabolite). The latter is further processed to isosorbide-5-nicotinate and eventually to nicotinic acid. The orthonitrate and metanitrate compounds liberate aspirin and nitric oxide (NO). ISAS meanwhile is hydrolysed to aspirin and salicylic acid. Aspirin (300 and 500 μM) was used in control experiments. Results were expressed in percent changes in maximal light transmission, with 100% representing light transmission of platelet medium alone. Further experiments were performed with ST0702 salicylate (500 μM).

TCIPA = conditions: at up to 3 mM

## CC(=O)Oc1ccccc1C(=O)Oc1cccc(CO[N+](=O)[O-])c1 [NCX-4016]
platelets; NO and cGMP independent
  inhibition of platelet aggregation in WP: inhibits platelet aggregation
platelets
  inhibition of platelet aggregation in PRP: does not inhibit platelet aggregation

## CC(=O)Oc1ccccc1C(=O)OC1COC2C(OC(=O)c3ccccc3O)COC12 (stereo not shown) [ST0701, isosorbide-2-aspirinate-5-salicylate]
59M cells [1]
  inhibition of TCIPA induced by 59M: able to inhibit; also recorded: inhibited
GPIIb/IIIa
  activation of GPIIb/IIIa in PRP: significantly suppressed
[2]
  inhibition of aggregation at 2 min preincubation: 40%
  preincubation time at which inhibition is maximal: 5 min
P-selectin [3]; PRP
  translocation of P-selectin in PRP: significantly suppressed
P-selectin [3]; WP
  translocation of P-selectin in WP: not in WP
[4]; ADP 10 μM, PRP
  inhibition of ADP (10 μM) induced aggregation in PRP, comparison in words: more efficacious than aspirin
[4]; ODQ 10 μM, compounds 100 μM, ADP 10 μM, PRP
  effect of ODQ pretreatment on inhibition of ADP induced aggregation: increased the inhibition
P-selectin [5]
  59M-mediated increase in platelet surface P-selectin: failed to prevent
Washed platelets (WP); BuChE 3 U/ml, collagen 5 μg/ml
  inhibitory actions in WP after addition of human BuChE purified from plasma: rescued
Washed platelets (WP); at 500 μM, collagen 5 μg/ml
  inhibition of collagen induced aggregation in WP: 50%
Washed platelets (WP); inhibition of platelet aggregation in response to collagen (5 (unit uncertain)), washed platelets
  IC50: 200 µM

## O=C(O[C@@H]1CO[C@H]2[C@@H]1OC[C@@H]2OC(=O)c1ccccc1O)c1cccnc1 [ST0702 salicylate, isosorbide-2-salicylate-5-nicotinate]
59M cells [6]
  inhibition of TCIPA under flow conditions (platelet-tumour cell disruption): did not inhibit TCIPA under flow conditions
Washed platelet samples
  inhibition of collagen-induced platelet aggregation: did not inhibit collagen-induced platelet aggregation
[7]
  half life in-vitro: very short
[4]; 500 μM, ADP 10 μM
  inhibition of ADP-induced aggregation in PRP: inhibited ADP-induced aggregation
[4]; 500 μM, eserine 10 μM
  inhibition of ADP-induced aggregation in PRP in the presence of eserine: became significant
HT1080 cells
  inhibition of TCIPA in response to HT1080, no flow: inhibit TCIPA

## O=C(OC1COC2C(O)COC12)c1cccnc1 (stereo not shown) [isosorbide-5-nicotinate]
TCIPA
  inhibition of TCIPA: did not inhibit TCIPA

## O=C(O)c1cccnc1 [nicotinic acid, reference compound]
TCIPA
  inhibition of TCIPA: did not inhibit TCIPA
